The text below walks through data of PMC4245125, “Pharmacological and Behavioral Characterization of D-473, an Orally Active Triple Reuptake Inhibitor Targeting Dopamine, Serotonin and Norepinephrine Transporters” (PLoS ONE, 2014).

The nature of series [1]: Plasma concentration after oral administration in rats. The format is in vivo. As to conditions: rat, male Sprague-Dawley rats, 25 mg/kg PO. The protocol:
Sample preparation: Following oral administration of 25 mg/kg of D-473 and D-142 in male Sprague Dawley rats, the blood samples were collected at different time points over a period of 8 h for analysis. Concentrations of D-473 and D-142 in plasma were quantitated using a set of calibration standards prepared in blank matrix that were processed in parallel. Plasma concentration evaluation was carried out by the CRO, Absorption System, PA. Additionally, brain uptake studies of D-473 were carried out at three different time points (2, 4 and 6 h) following oral administration of 25 mg/kg D-473. Concentrations of D-473 in rat brain were quantitated using a set of calibration standards which were prepared in blank brain homogenate matrix on the day of analysis. The standard samples (5, 10, 25, 100, 500, 1000, and 2000 ng/mL) for calibration curve were prepared by spiking 45 µL of blank rat plasma with 5 µL of appropriate working dilution of D-473 in acetonitrile. The bioanalytical sample preparation for brain and plasma analysis followed by quantification of test compounds entailed the addition of 250 µL acetonitrile to every 50 µL of standard and analyte samples to precipitate tissue plasma proteins and tissue macromolecules. These mixtures were then vortexed for 15 min at 1400 rpm. The suspensions were then clarified by centrifugation (18000 g, 10 min at 4°C), and each 150 µL of the resulting supernatant was mixed well with 50 µL 0.1% formic acid in 50/50 (v/v) ACN/water solution for about 10 sec. The mixtures were again centrifuged (18000 g, 10 min at 4°C) before 100 µL of clear supernatant were transferred to auto sampler vials for LC-MS/MS analysis.
The analysis of blood sample was carried out by the CRO Absorption system, PA. Briefly, the analysis was carried out by Waters Acquity UPLC equipped with PE Sciex API4000 mass spectrometer. Reverse phase Waters Acquity BEH Phenyl Column 1.7micron, 2.1×30 mm column was used for analysis. 5 µL of sample solutions were injected with a flow rate 1 mL/min and the samples were eluted with gradient elution using solvent A (10% buffer: 90% water) and solvent B (10% buffer: 90% acetonitrile). Buffer used was 40 mM Ammonium Formate Buffer, pH 3.5. Pharmacokinetic prarameters were estimated by a non-compartmental model using WinNonlin v5.2.1 software.

The target in series [2] is T1, 5HT1a (Homo sapiens, UniProt P08908).
T1 construct: purchased NIMH PDSP
The series is described as follows: NIMH PDSP receptor binding, 5HT1a. Particulars: [3H]8-OH-DPAT, read-out: % Inhibition of Binding at 10 µM D-473.

In series [3] the target is T2, M3 (Homo sapiens, UniProt P20309).
T2 construct: purchased NIMH PDSP
The series is described as follows: biochemical. Particulars: read-out: % Inhibition of Binding at 10 µM D-473.

In series [4] the target is T3, 5HT1d (Homo sapiens, UniProt P28221).
T3 construct: purchased NIMH PDSP
The series can be described thus: NIMH PDSP receptor binding, 5HT1d. Particulars: [3H]GR-125743, read-out: % Inhibition of Binding at 10 µM D-473.

The target in series [5] is T4, Alpha1B (Homo sapiens, UniProt P35368).
T4 construct: purchased NIMH PDSP
The series can be described thus: NIMH PDSP receptor binding, Alpha1B. Particulars: [3H]Prazosin, read-out: % Inhibition of Binding at 10 µM D-473.

Series [6] has as its system duration of immobility. The series can be described thus: Forced swim test in rats after oral administration. The format is in vivo. Particulars: rat, sub-chronic. The protocol: The experiment was carried out in the same way as described in our previous publications according to the Porsolt protocol, [30]. The subjects were male Sprague Dawley rats (Harlam Sprague Dawley Inc., Indianapolis, Ind., USA) weighing 200–225 g housed in cages for at least 1 week prior to testing. Animals were maintained in a temperature-controlled environment under a 12 hr light-dark cycle. All subjects were naive and were used only once. Rats were transported to the testing room at least for one hour prior to testing for acclimatization and adaptation purposes. Experimental sessions were conducted between 9 AM to 2 PM daily. Animals were assigned randomly and were placed individually in a glass cylinder (24.5 cm×35.5 cm) filled with water at room temperature to a depth of 22 cm. All the test sessions were recorded by video cameras. The water was changed in the beginning of each session and the temperature was maintained constant at 24–25°C. Rats were judged to be immobile if they made only minimal movement, barely keeping afloat. The test procedure consisted of a pretest and test session separated by 24 h. During the pretest period, rats were placed in the swim chamber for 15 min. Followed by the initial swim exposure; rats were patted dry and were transferred to the individual cages. Drugs or vehicle were then orally administered (p.o) 15 min after the initial swim exposure and were then transported to their home cages. On the following day the rats were brought back to the testing room at least 1 h before the beginning of test session. Rats were administered either drugs or vehicle 1 h before the swim test. Each rat underwent a 5-min swim session, which was videotaped and scored later. In the case of imipramine, pretreatment time was 30 min. Drug solutions were prepared freshly on the test days. Compound D-473 was dissolved in 3% beta-hydroxy propyl cyclodextrin solution. All drug and vehicle preparations were administered orally. D-473 was administered at a dose of 5, 10, 25 and 50 mg/kg and the volume was maintained at 1.2 mL/rat. Drug or vehicle was administered 1 h prior to testing for forced swimming. An individual, blinded to the treatment, scored the videotapes for immobility. Immobility scores were analyzed by one way ANOVA test. Behavioral results were analyzed with Prism 6.0 (GraphPad Software, San Diego, CA). The immobility time for forced swimming test was analyzed by one-way ANOVA (analysis of variance) followed by post Dunnett’s multiple comparison test vs. vehicle. Data for vehicle was used as negative control, respectively. Statistical significance was assumed in analysis if p≤0.05.

Series [7] has as its target T5, Beta2 (Homo sapiens, UniProt P07550).
T5 construct: purchased NIMH PDSP
The series is described as follows: NIMH PDSP receptor binding, Beta2. Particulars: [125I]Iodopindolol, read-out: % Inhibition of Binding at 10 µM D-473.

In series [8] the target is hNET (Homo sapiens, UniProt P23975). The series can be described thus: Inhibition of [3H]DA uptake by cloned human NET in HEK293 cells.

By half-life is commonly meant the time needed for the level to fall by half in the phase considered. A word on the inhibition: it is the change of the read-out against control, counted positive when it falls. What is called Ki is the dissociation constant of the complex between target and ligand, obtained from inhibition or displacement.

Values joined by “and” are separate entries in the source; they are usually repeats but may differ in a detail not shown here. Equal entries are not always repeated. “Also recorded” adds a separate entry of the source.

Chain of hNET (P23975 whole entry): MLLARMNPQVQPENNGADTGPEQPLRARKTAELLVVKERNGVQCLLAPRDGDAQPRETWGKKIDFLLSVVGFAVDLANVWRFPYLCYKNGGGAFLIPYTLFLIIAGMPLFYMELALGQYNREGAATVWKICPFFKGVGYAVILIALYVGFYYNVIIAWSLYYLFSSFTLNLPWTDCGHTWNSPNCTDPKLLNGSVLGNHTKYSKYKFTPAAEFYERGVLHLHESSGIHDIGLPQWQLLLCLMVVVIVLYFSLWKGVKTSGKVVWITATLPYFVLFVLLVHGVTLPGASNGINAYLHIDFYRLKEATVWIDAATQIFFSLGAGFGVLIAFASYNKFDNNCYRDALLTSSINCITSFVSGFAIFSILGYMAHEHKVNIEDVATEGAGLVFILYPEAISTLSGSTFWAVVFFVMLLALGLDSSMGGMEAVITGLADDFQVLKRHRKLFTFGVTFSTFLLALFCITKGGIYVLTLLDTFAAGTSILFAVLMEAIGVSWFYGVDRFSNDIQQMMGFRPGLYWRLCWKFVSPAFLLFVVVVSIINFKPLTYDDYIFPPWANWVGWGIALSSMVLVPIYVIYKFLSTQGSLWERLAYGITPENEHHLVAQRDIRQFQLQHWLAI
T1 sequence (P08908 whole entry): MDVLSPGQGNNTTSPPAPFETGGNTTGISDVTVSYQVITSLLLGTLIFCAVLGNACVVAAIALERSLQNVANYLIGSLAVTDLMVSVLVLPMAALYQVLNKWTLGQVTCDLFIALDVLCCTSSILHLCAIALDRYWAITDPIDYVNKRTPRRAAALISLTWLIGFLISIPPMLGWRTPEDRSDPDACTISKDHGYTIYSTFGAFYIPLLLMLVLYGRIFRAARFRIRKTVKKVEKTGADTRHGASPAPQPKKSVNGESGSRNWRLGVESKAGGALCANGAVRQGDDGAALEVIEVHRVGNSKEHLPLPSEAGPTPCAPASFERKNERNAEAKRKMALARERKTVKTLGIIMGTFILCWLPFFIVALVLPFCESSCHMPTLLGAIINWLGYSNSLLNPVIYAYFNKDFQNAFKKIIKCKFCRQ
T3 sequence (P28221 whole entry): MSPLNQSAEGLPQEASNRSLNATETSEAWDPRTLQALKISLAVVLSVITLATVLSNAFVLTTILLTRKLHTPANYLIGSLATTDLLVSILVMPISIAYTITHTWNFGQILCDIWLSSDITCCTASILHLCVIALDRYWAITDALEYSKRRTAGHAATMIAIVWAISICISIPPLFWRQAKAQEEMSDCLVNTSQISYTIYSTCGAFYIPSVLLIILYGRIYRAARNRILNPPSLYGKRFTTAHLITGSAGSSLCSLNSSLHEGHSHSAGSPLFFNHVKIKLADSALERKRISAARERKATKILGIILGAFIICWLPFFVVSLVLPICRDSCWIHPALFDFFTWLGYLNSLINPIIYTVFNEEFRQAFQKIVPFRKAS
T5 sequence (P07550 whole entry): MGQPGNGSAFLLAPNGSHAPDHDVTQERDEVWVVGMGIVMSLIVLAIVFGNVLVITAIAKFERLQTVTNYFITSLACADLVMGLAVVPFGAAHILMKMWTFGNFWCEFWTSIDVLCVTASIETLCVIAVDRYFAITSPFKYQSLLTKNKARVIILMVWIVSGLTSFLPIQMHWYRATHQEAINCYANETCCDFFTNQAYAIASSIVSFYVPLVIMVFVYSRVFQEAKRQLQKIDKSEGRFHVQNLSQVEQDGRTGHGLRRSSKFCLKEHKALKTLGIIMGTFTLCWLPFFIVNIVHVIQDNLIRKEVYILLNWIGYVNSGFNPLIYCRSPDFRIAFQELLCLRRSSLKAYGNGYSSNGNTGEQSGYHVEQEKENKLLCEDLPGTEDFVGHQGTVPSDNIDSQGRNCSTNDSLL
T2 sequence (P20309 whole entry): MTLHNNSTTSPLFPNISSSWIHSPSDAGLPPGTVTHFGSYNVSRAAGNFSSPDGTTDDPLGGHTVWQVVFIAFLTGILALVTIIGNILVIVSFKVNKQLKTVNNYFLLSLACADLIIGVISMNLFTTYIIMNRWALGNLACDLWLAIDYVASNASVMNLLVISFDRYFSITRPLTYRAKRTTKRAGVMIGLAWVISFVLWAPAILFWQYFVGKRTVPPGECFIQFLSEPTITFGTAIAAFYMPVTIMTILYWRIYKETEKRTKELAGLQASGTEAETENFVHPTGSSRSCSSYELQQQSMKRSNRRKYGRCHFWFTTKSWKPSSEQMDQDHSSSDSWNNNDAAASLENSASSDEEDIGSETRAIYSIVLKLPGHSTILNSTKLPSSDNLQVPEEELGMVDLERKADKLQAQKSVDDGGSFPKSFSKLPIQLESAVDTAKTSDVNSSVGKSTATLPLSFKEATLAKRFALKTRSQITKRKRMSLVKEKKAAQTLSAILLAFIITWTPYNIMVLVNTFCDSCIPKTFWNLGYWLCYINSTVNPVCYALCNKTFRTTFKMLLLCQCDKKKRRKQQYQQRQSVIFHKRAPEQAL
T4 sequence (P35368 whole entry): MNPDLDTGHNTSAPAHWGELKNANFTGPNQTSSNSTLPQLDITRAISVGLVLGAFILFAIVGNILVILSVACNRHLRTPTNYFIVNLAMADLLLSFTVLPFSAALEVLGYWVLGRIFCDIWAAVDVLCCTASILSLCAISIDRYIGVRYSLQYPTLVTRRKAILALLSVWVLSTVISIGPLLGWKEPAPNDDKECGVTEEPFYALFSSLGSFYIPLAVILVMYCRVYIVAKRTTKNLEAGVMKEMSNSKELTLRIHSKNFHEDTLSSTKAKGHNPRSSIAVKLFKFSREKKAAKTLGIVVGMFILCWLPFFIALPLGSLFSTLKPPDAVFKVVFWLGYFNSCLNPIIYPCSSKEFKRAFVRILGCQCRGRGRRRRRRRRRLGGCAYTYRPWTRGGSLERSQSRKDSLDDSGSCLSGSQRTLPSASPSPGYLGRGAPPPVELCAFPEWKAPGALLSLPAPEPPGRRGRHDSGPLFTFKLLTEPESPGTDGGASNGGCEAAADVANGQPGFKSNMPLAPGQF

Take `COc1ccc(CN[C@@H]2CO[C@H](C(c3ccc(F)cc3)c3ccc(F)cc3)C[C@H]2O)cc1` [Compound D-473, (2S,4R,5R)-2-(bis(4-fluorophenyl)methyl)-5-((4-methoxybenzyl)amino)tetrahydro-2H-pyran-4-ol]: in series [1] (3% HPßCD in water, read-out: Average maximum plasma concentration, Cmax), the Cmax is 404 ± 223 ng/mL. In addition, in series [1] (read-out: Estimated average half-life (converted)), the half-life is 6.39 ± 0.106 h. Moreover, the inhibition at 10 µM in series [2] is 35.4%; in series [3] it was 6.9%; in series [4], 39%; in series [5], 16.6%; in series [7], -4.4%. The “Duration of immobility in the forced swimming test” value in series [6] (5 mg/kg p.o., vs vehicle) was “did not produce significant reduction in immobility”; in series [6] (10 mg/kg p.o., vs vehicle (P<0.01), 10 mg/kg) it was “robust, statistically significant effect; also recorded: statistically significant different compared to vehicle”; in series [6] (25 mg/kg p.o., vs vehicle (P<0.01)), “statistically significant different compared to vehicle”; in series [6] (50 mg/kg p.o., vs vehicle (P<0.01)) it was “statistically significant different compared to vehicle”. Moreover, in series [8] (NET uptake, Ki, nM [3H]DA, HEK293 cells expressing hNET, average±S.E.M., 3 to 10 determinations), the Ki is 39 nM and 39.7 nM. In addition, the “Activity at NET relative to DAT” value in series [8] (hNET vs hDAT uptake inhibition) is on record as “roughly two fold more potent”.
